molecular target: T1, streptavidin (Streptomyces avidinii, UniProt P22629); test: Cy5-streptavidin binding on HotSpot discovery array, 5-mer L-peptide library; conditions: 5-mer L-peptide library array, Cy5-streptavidin; from average of three arrays
T1 construct: purchased GE Healthcare (Little Chalfont, UK)
Method in brief: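 Array of 2,476,099 5-mer peptides (19 amino acids, no cysteine) with Gly-Ser linkers, probed overnight at 4 °C with 0.5 µg/ml Cy5-streptavidin in Tris pH 7.4 buffer containing casein or BSA plus Tween-20. Cy5 fluorescence read at 635 nm; peptides selected by signal-to-background >4 across three arrays.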

T1 sequence (P22629 25-183): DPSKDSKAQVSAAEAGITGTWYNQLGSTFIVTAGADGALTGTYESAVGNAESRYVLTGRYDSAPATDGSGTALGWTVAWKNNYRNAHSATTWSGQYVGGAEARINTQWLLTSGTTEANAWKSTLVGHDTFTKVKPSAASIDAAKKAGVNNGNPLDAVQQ

With RSHPQ as the substance, how does the “S/B (signal to background ratio)” value read?
Its value is 137.5.

Which “S/B (signal to background ratio)” value does the source give for RTHPM here?
Its value is 49.0.

RTHPQ was tested. Which “S/B (signal to background ratio)” value did it give?
Its value is 125.7.

How did the “S/B (signal to background ratio)” value turn out when RVHPQ was run?
The value was 126.3.

How did the “S/B (signal to background ratio)” value turn out when RYHPQ was run?
Its value is 175.9.

Which “S/B (signal to background ratio)” value does the source give for SDHPM here?
Its value is 34.7.

How did the “S/B (signal to background ratio)” value turn out when SEHPM was run?
The value was 19.1.

SFHPQ was tested. Which “S/B (signal to background ratio)” value did it give?
The value was 121.6.

How did the “S/B (signal to background ratio)” value turn out when SGHPM was run?
The value was 54.4.

same assay, conditions: 5-mer L-peptide library array, Cy5-streptavidin; from the average of three arrays

Which “S/B (signal to background ratio)” value does the source give for NEHPQ here?
Its value is 58.6.

NHPMA was tested. Which “S/B (signal to background ratio)” value did it give?
The value was 59.8.

With NHPQF as the substance, how does the “S/B (signal to background ratio)” value read?
Its value is 99.9.

For NHPQS, which “S/B (signal to background ratio)” value is on record?
The value was 70.7.

Which “S/B (signal to background ratio)” value does the source give for NHPQV here?
Its value is 81.6.

With NIHPQ as the substance, how does the “S/B (signal to background ratio)” value read?
Its value is 100.3.

With NKHPQ as the substance, how does the “S/B (signal to background ratio)” value read?
The value was 85.9.

Which “S/B (signal to background ratio)” value does the source give for NQHPQ here?
The value was 107.5.

Which “S/B (signal to background ratio)” value does the source give for NRHPQ here?
The value was 115.2.

NWHPM was tested. Which “S/B (signal to background ratio)” value did it give?
The value was 84.8.

With PDHPQ as the substance, how does the “S/B (signal to background ratio)” value read?
Its value is 72.7.

Which “S/B (signal to background ratio)” value does the source give for PHPQF here?
The value was 98.8.

With PHPQS as the substance, how does the “S/B (signal to background ratio)” value read?
Its value is 95.0.

PHPQV was tested. Which “S/B (signal to background ratio)” value did it give?
Its value is 97.2.

For PKHPQ, which “S/B (signal to background ratio)” value is on record?
Its value is 80.7.

How did the “S/B (signal to background ratio)” value turn out when PVHPQ was run?
Its value is 99.3.

With QDHPQ as the substance, how does the “S/B (signal to background ratio)” value read?
Its value is 81.1.

Which “S/B (signal to background ratio)” value does the source give for QEHPQ here?
Its value is 63.4.

Which “S/B (signal to background ratio)” value does the source give for QFHPM here?
Its value is 77.7.

With QHHPM as the substance, how does the “S/B (signal to background ratio)” value read?
The value was 64.4.

QHPQF was tested. Which “S/B (signal to background ratio)” value did it give?
Its value is 117.5.

With QHPQS as the substance, how does the “S/B (signal to background ratio)” value read?
The value was 87.0.

How did the “S/B (signal to background ratio)” value turn out when QHPQV was run?
Its value is 84.6.

Which “S/B (signal to background ratio)” value does the source give for QKHPQ here?
The value was 86.0.

How did the “S/B (signal to background ratio)” value turn out when QLHPQ was run?
The value was 117.5.

How did the “S/B (signal to background ratio)” value turn out when QNHPM was run?
Its value is 58.4.

Which “S/B (signal to background ratio)” value does the source give for QPHPQ here?
Its value is 90.3.

QTHPQ was tested. Which “S/B (signal to background ratio)” value did it give?
The value was 90.7.

For QWHPM, which “S/B (signal to background ratio)” value is on record?
Its value is 72.2.

How did the “S/B (signal to background ratio)” value turn out when QYHPM was run?
The value was 82.7.

For RFHPM, which “S/B (signal to background ratio)” value is on record?
The value was 59.2.

How did the “S/B (signal to background ratio)” value turn out when RGHPM was run?
Its value is 58.1.

RHPMA was tested. Which “S/B (signal to background ratio)” value did it give?
Its value is 68.6.

How did the “S/B (signal to background ratio)” value turn out when RHPQN was run?
The value was 86.1.

With RHPQV as the substance, how does the “S/B (signal to background ratio)” value read?
Its value is 94.3.

For RRHPQ, which “S/B (signal to background ratio)” value is on record?
The value was 103.0.

How did the “S/B (signal to background ratio)” value turn out when RWHPM was run?
Its value is 79.7.

With SDHPQ as the substance, how does the “S/B (signal to background ratio)” value read?
Its value is 92.6.

SFHPM was tested. Which “S/B (signal to background ratio)” value did it give?
The value was 65.3.

same assay, conditions: 5-mer L-peptide library, from the average of three arrays

Which “S/B (signal to background ratio)” value does the source give for NHPMK here?
Its value is 4.7.

For NHPQL, which “S/B (signal to background ratio)” value is on record?
Its value is 4.1.

With “NWDQV [L-amino acid 5-mer array peptide]” as the substance, how does the “S/B (signal to background ratio)” value read?
Its value is 4.6.

For “NWEAI [L-amino acid 5-mer array peptide]”, which “S/B (signal to background ratio)” value is on record?
Its value is 4.1.

“NWEAV [L-amino acid 5-mer array peptide]” was tested. Which “S/B (signal to background ratio)” value did it give?
Its value is 4.1.

“PGWAH [L-amino acid 5-mer array peptide]” was tested. Which “S/B (signal to background ratio)” value did it give?
Its value is 4.8.

For PHPMW, which “S/B (signal to background ratio)” value is on record?
The value was 5.2.

For “PIPDW [L-amino acid 5-mer array peptide]”, which “S/B (signal to background ratio)” value is on record?
Its value is 4.1.

With “PLPDD [L-amino acid 5-mer array peptide]” as the substance, how does the “S/B (signal to background ratio)” value read?
The value was 4.9.

How did the “S/B (signal to background ratio)” value turn out when QHPMK was run?
Its value is 4.4.

With RHPMD as the substance, how does the “S/B (signal to background ratio)” value read?
Its value is 4.3.

With RHPMR as the substance, how does the “S/B (signal to background ratio)” value read?
The value was 4.2.

How did the “S/B (signal to background ratio)” value turn out when RHPMT was run?
Its value is 5.1.

For RHPQL, which “S/B (signal to background ratio)” value is on record?
The value was 4.6.

same assay, conditions: average of three arrays, L-peptide 5-mer library

Which “S/B (signal to background ratio)” value does the source give for “NWDEI [L-amino acid 5-mer array peptide]” here?
The value was 7.3.

“NWDEW [L-amino acid 5-mer array peptide]” was tested. Which “S/B (signal to background ratio)” value did it give?
The value was 7.8.

For “NWDQV [L-amino acid 5-mer array peptide]”, which “S/B (signal to background ratio)” value is on record?
The value was 4.6.

Which “S/B (signal to background ratio)” value does the source give for “NWDQW [L-amino acid 5-mer array peptide]” here?
Its value is 6.7.

For “NWDVI [L-amino acid 5-mer array peptide]”, which “S/B (signal to background ratio)” value is on record?
Its value is 5.3.

With “NWEAI [L-amino acid 5-mer array peptide]” as the substance, how does the “S/B (signal to background ratio)” value read?
The value was 4.1.

For “NWEAV [L-amino acid 5-mer array peptide]”, which “S/B (signal to background ratio)” value is on record?
Its value is 4.1.

Which “S/B (signal to background ratio)” value does the source give for “PAWGH [L-amino acid 5-mer array peptide]” here?
The value was 11.9.

With “PGWAH [L-amino acid 5-mer array peptide]” as the substance, how does the “S/B (signal to background ratio)” value read?
The value was 4.8.

“PIPDW [L-amino acid 5-mer array peptide]” was tested. Which “S/B (signal to background ratio)” value did it give?
Its value is 4.1.

With “PLPDD [L-amino acid 5-mer array peptide]” as the substance, how does the “S/B (signal to background ratio)” value read?
Its value is 4.9.

For “PSWAH [L-amino acid 5-mer array peptide]”, which “S/B (signal to background ratio)” value is on record?
The value was 7.3.

With “RFDLL [L-amino acid 5-mer array peptide]” as the substance, how does the “S/B (signal to background ratio)” value read?
The value was 5.2.

For “RHDLY [L-amino acid 5-mer array peptide]”, which “S/B (signal to background ratio)” value is on record?
The value was 6.6.

same assay, conditions: signal to background ratio; 5-mer L-peptide library array, Cy5-streptavidin

Which S/B does the source give for NHPQK here?
The S/B was 14.8.

Which S/B does the source give for NHPQW here?
Its S/B is 16.4.

For “NWDEI [L-amino acid 5-mer array peptide]”, which S/B is on record?
The S/B was 7.3.

With “NWDEW [L-amino acid 5-mer array peptide]” as the substance, how does the S/B read?
Its S/B is 7.8.

Which S/B does the source give for “NWDQW [L-amino acid 5-mer array peptide]” here?
Its S/B is 6.7.

For “NWDVI [L-amino acid 5-mer array peptide]”, which S/B is on record?
The S/B was 5.3.

“PAWGH [L-amino acid 5-mer array peptide]” was tested. Which S/B did it give?
Its S/B is 11.9.

For PHPMF, which S/B is on record?
Its S/B is 10.9.

For PHPMH, which S/B is on record?
The S/B was 8.8.

For PHPMN, which S/B is on record?
Its S/B is 14.3.

PHPMY was tested. Which S/B did it give?
The S/B was 12.1.

Which S/B does the source give for PHPQD here?
Its S/B is 15.6.

For PHPQK, which S/B is on record?
Its S/B is 14.7.

PMPDD was tested. Which S/B did it give?
Its S/B is 8.2.

Which S/B does the source give for PMPDE here?
Its S/B is 6.3.

How did the S/B turn out when PQPDW was run?
Its S/B is 5.2.

For “PSWAH [L-amino acid 5-mer array peptide]”, which S/B is on record?
Its S/B is 7.3.

How did the S/B turn out when QHPMH was run?
The S/B was 12.4.

With QHPMI as the substance, how does the S/B read?
Its S/B is 6.4.

Which S/B does the source give for QHPMR here?
The S/B was 9.5.

For QHPMY, which S/B is on record?
The S/B was 11.3.

Which S/B does the source give for QHPQI here?
The S/B was 14.9.

How did the S/B turn out when QHPQK was run?
Its S/B is 15.8.

With “RFDLL [L-amino acid 5-mer array peptide]” as the substance, how does the S/B read?
The S/B was 5.2.

How did the S/B turn out when “RHDLY [L-amino acid 5-mer array peptide]” was run?
Its S/B is 6.6.

RHPMI was tested. Which S/B did it give?
The S/B was 8.0.

For RHPMM, which S/B is on record?
Its S/B is 11.6.

With RHPMQ as the substance, how does the S/B read?
Its S/B is 16.4.

RHPMW was tested. Which S/B did it give?
Its S/B is 5.9.

RHPMY was tested. Which S/B did it give?
The S/B was 14.4.

RHPQE was tested. Which S/B did it give?
The S/B was 8.3.

With RHPQP as the substance, how does the S/B read?
Its S/B is 7.4.

Source: PMC5608804, “Stepwise Evolution Improves Identification of Diverse Peptides Binding to a Protein Target” (Scientific Reports, 2017)
